These results are taken from patent US6683103B2, “Sulfonamides for treatment of endothelin-mediated disorders” (Texas Biotechnology Corporation, priority 1997, dated 2004).

The structures appear in SMILES notation. Like-named read-outs stand apart in the source and are kept apart here.

In one experiment the target is T1, human ETB receptor (Homo sapiens, UniProt P24530).
T1 construct: expressed in transfected cells; host or cells: COS7 cells
T1 sequence (P24530 27-442): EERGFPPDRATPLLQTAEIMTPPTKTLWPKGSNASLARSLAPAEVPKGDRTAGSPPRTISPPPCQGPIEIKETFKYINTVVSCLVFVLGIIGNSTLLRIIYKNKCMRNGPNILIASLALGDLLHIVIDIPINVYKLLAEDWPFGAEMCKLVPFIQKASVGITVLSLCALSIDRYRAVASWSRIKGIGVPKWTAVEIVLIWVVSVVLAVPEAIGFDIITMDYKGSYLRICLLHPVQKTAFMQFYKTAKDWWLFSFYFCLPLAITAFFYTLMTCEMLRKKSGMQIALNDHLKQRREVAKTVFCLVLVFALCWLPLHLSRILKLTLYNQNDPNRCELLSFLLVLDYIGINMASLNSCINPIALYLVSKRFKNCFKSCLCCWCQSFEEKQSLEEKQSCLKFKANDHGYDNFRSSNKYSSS
Description: Binding Test #2: inhibition of 125I-ET-1 binding to ETB receptors (transfected COS7 cell membranes). The source says: (§1) Compounds that are potential endothelin antagonists are identified by testing their ability to compete with ^125I-labeled ET-1 for binding to human ETA receptors or ETB receptors present on isolated cell membranes. The effectiveness of the test compound as an antagonist or agonist of the biological tissue response of endothelin can also be assessed by measuring the effect on endothelin induced contraction of isolated rat thoracic aortic rings. The ability of the compounds to act as antagonists or agonists for ETB receptors can be assess by testing the ability of the compounds are to inhibit endothelin-1 induced prostacyclin release from cultured bovine aortic endothelial cells.
B. Endothelin Binding Inhibition—Binding Test #2: Inhibition of Binding to ETB Receptors
COS7 cells were transfected with DNA encoding the ETB receptor, The resulting cells, which express the human ETB receptor, were grown to confluence in T-150 flasks. Membrane was prepared as described above. The binding assay was performed as described above using the membrane preparation diluted with binding buffer to a concentration of 1 μg/50 μl.
Briefly, the COS7 cells, described above, that had been transfected with DNA encoding the ETB receptor and express the human ETB receptor on their surfaces were grown to confluence in T-1 75 flasks. Cells from multiple flasks were collected by scraping, pooled and centrifuged for 10 min at 190×g. The cells were resuspended in phosphate buffered saline (PBS) containing 10 mM EDTA using a Tenbroeck homogenizer. The suspension was centrifuged at 4° C. 57,800 X g for 15 min, the pellet was resuspended in 5 ml of buffer A (5mM HEPES buffer, pH 7.4 containing aprotinin (100 KIU/ml)) and then frozen and thawed once. Five ml of Buffer B (5 mM HEPES Buffer, pH 7.4 containing 10 mM MnCl2 and 0.001% deoxyribonuclease Type 1) was added, the suspension mixed by inversion and then incubated at 37° C. for 30 minutes. The mixture was centrifuged at 57,800×g as described above, the pellet washed twice with buffer A and then resuspended in buffer C (30 mM HEPES buffer, pH 7.4 containing aprotinin (100 KIU/ml) to give a final protein concentration of 2 mg/ml.
The binding assay was performed as described above using the membrane preparation diluted to give 1 μg/50 μl of binding buffer.

In the next experiment the target is T2, human ETA receptors (Homo sapiens, UniProt P25101).
T2 construct: endogenous in cells; host or cells: TE 671 cells (ATCC HTB 139)
T2 sequence (P25101 21-427): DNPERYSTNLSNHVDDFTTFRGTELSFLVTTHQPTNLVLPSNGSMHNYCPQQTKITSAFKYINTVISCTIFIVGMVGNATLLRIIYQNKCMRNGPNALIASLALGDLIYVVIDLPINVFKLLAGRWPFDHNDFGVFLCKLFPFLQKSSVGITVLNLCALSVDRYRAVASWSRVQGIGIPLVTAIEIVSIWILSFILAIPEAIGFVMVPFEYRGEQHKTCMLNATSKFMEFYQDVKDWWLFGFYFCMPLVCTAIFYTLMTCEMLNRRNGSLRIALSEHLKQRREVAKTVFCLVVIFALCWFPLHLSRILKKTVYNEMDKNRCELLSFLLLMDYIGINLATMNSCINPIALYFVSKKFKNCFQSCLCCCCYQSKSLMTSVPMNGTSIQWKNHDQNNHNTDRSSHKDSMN
The experiment is described as follows: Binding Test #1: inhibition of 125I-ET-1 binding to ETA receptors (TE 671 cell membranes).
From the text: as §1
A. Endothelin Binding Inhibition—Binding Test #1: Inhibition of Binding to ETA Receptors
TE 671 cells (ATCC Accession No. HTB 139) express ETA receptors. These cells were grown to confluence in T-175 flasks. Cells from multiple flasks were collected by scraping, pooled and centrifuged for 10 min at 190×g. The cells were resuspended in phosphate buffered saline (PBS) containing 10 mM EDTA using a Tenbroeck homogenizer. The suspension was centrifuged at 4° C. at 57,800×g for 15 min, the pellet was resuspended in 5 ml of buffer A (5 mM HEPES buffer, pH 7.4 containing aprotinin (100 KIU/ml)) and then frozen and thawed once. 5 ml of Buffer B (5 mM HEPES Buffer, pH 7.4 containing 10 mM MnCl2 and 0.001% deoxyribonuclease Type 1) was added, the suspension mixed by inversion and then incubated at 37° C. for 30 minutes. The mixture was centrifuged at 57,800×g as described above, the pellet washed twice with buffer A and then resuspended in buffer C (30 mM HEPES buffer, pH 7.4 containing aprotinin (100 KIU/ml) to give a final protein concentration of 2 mg/ml and stored at −70° C. until use.
The membrane suspension was diluted with binding buffer (30 mM HEPES buffer, pH 7.4 containing 150 mM NaCl, 5mM MgCl2, 0.5% Bacitracin) to a concentration of 8 μg/50 μl. ^125I-endothelin-1 (3,000 cpm, […]) was added to 50 μL of either: (A) endothelin-1 (for non specific binding) to give a final concentration 80 nM); (B) binding buffer (for total binding); or (C) a test compound (final concentration 1 nM to 100 μM). The membrane suspension (50 μL), containing up to 8 μg of membrane protein, was added to each of (A), (B), or (C). Mixtures were shaken, and incubated at 4° C. for 16-18 hours, and then centrifuged at […] for 25 min at 2,500×g. Alternatively, the incubation was conducted at 24° C. […] This, must be kept in mind when comparing IC50 concentrations among compounds provided herein.
The supernatant, containing unbound radioactivity, was decanted and the pellet counted on a Genesys multiwell gamma counter. The degree of inhibition of binding (D) was calculated according to the following equation: [formula]
Each test was generally performed in triplicate.

The mark [1] stands for this setting: Table 1, † incubation at 24° C., read-out: ETB.
Where [2] appears, read: Table 1, † incubation at 24° C., read-out: ETA.
Setting [3] is: Table 1, incubation at 4° C., read-out: ETB.
[4] abbreviates: Table 1, incubation at 4° C., read-out: ETA.
Where [5] appears, read: Table 2, incubation at 4° C., read-out: ETB.
The mark [6] stands for this setting: Table 2, incubation at 4° C., read-out: ETA.

In the case of `Cc1ccc(/C=C/c2sccc2S(=O)(=O)Nc2onc(C)c2Br)cc1`, the IC50 at human ETB receptor (setting [1]) came to 413 nM; on human ETA receptors (setting [2]), 260 nM.
`Cc1noc(NS(=O)(=O)c2cc(Br)c(Cl)s2)c1Br` [4-bromo-5-chloro-N-(4-Bromo-3-methyl-5-isoxazolyl)-thiophene-2-sulfonamide]: the IC50 came out at 2670 nM at human ETB receptor (setting [3]) and 359 nM on human ETA receptors (setting [4]).
The corresponding values for `Cc1cc(NS(=O)(=O)c2ccc(-c3ccon3)s2)on1` [5-(3-isoxazolyl)-N-(3-methyl-5-isoxazolyl)-2-thiophenesulfonamide] are 6700 nM and 5600 nM.
The corresponding values for `Cc1noc(NS(=O)(=O)c2cccn2-c2ccc(-c3ccccc3)cc2)c1Br` [(4-bromo-3-methyl-5-isoxazolyl)-1-(4′-biphenyl)pyrrole-2-sulfonamide] are 7840 nM and 9170 nM.
With `Cc1noc(NS(=O)(=O)c2ccsc2NC(=O)Nc2sccc2S(=O)(=O)Nc2onc(C)c2C)c1C` [N,N′-bis{3-[3,4-dimethyl-5-isoxazolyl)aminosulfonyl]thien-2-yl}urea], the IC50 came out at 3700 ± 2700 nM on human ETB receptor (setting [3]), 5900 nM at human ETB receptor (setting [1]), 1010 ± 1030 nM at human ETA receptors (setting [4]) and 2700 nM on human ETA receptors (setting [2]).
For `Cc1noc(NS(=O)(=O)c2ccsc2NC(=O)Nc2sccc2S(=O)(=O)Nc2onc(C)c2Br)c1Br` [N,N′-bis{3-[(4-bromo-3-methyl-5-isoxazolyl)aminosulfonyl)thien-2-yl} urea] the same measures were 290 nM, 1190 nM, 69.2 nM and 295 nM.
Turning to `Cc1noc(NS(=O)(=O)c2ccsc2C(=O)Oc2ccc3c(c2)OCO3)c1C` [N-(3,4-dimenthyl-5-isoxazolyl)-2-[3,4-(methylenedioxy)phenox] [N-(3,4-dimenthyl-5-isoxazolyl)-2-[3,4-(methylenedioxy)phenoxycarbonyl]thiophene-3-sulfonamide], the IC50 at human ETB receptor (setting [1]) was above 50000 nM; on human ETA receptors (setting [2]), 6100 nM.
For `Cc1noc(NS(=O)(=O)c2ccsc2C(=O)Nc2ccccc2)c1C` [N-(3,4-dimethyl-5-isoxazolyl)-2-(N-phenylaminocarbonyl)thiophene-3-sulfonamide], the figures for the IC50 at human ETB receptor (setting [3]) and on human ETA receptors (setting [4]) were around 170000 nM and 18.2 nM, respectively.
As to `Cc1noc(NS(=O)(=O)c2ccsc2C(=O)O)c1C` [N-(3,4-dimethyl-5-isoxazolyl)-2-(carboxyl)thiophene-3-sulfonamide], the values for the IC50 at human ETB receptor (setting [3]) and on human ETA receptors (setting [4]) were above 100000 nM and 2640 nM, respectively.
On to `Cc1noc(NS(=O)(=O)c2ccccc2-c2ccccc2)c1C` [N-(3,4-dimethyl-5-isoxazolyl)-2-biphenylsulfonamide], for which the IC50 on human ETB receptor (setting [5]) was 12800 nM; on human ETA receptors (setting [6]), 8.3 ± 1.4 nM; on human ETA receptors (read-out: IC50 for ETA receptors), around 8 nM.
Turning to `Cc1noc(NS(=O)(=O)c2cccc(-c3ccccc3)c2)c1C` [N-(3,4-dimethyl-5-isoxazolyl)-3-biphenylsulfonamide], the IC50 was 3480 nM at human ETB receptor (setting [5]), around 3480 nM on human ETB receptor (read-out: IC50 for ETB receptors) and above 30 nM at human ETA receptors (setting [6]).
Turning to `COc1ccsc1S(=O)(=O)Nc1onc(C)c1C` [N-(3,4-dimethyl-5-isoxazolyl)-3-methoxythiophene-2-sulfonamide], the IC50 at human ETB receptor (setting [3]) is 45500 nM; on human ETA receptors (setting [4]), 2500 nM.
For `Cc1noc(NS(=O)(=O)c2ccc(-c3ccccc3)cc2)c1C` [N-(3,4-dimethyl-5-isoxazolyl)-4-biphenylsufonamide], the IC50 on human ETB receptor (setting [5]) was found to be 770 ± 320 nM; on human ETB receptor (Table 2, † incubation at 24° C., read-out: ETB), 150 nM; on human ETA receptors (setting [6]), 9900 ± 1400 nM; at human ETA receptors (Table 2, † incubation at 24° C., read-out: ETA) it was 6300 nM.
`Cc1noc(NS(=O)(=O)c2cc3ccccc3s2)c1C` [N-(3,4-dimethyl-5-isoxazolyl)benzo[b]thiophene-2-sulfonamide]: the IC50 at human ETB receptor (setting [3]) is 11100 nM; on human ETA receptors (setting [4]), 7220 nM.
The corresponding values for `Cc1noc(NS(=O)(=O)c2cc3ccccc3o2)c1C` [N-(3,4-dimethyl-5-isoxazolyl)benzofuran-2-sulfonamide] are 38400 nM and 5220 nM.
For `Cc1noc(NS(=O)(=O)c2ccc(-c3ccccc3)s2)c1C` [N-(3,4-dimethyl-5-isoxazolyl-5-phenylthiophen-2-sulfonamide], the figures for the IC50 at human ETB receptor (setting [3]) and on human ETA receptors (setting [4]) were 1290 nM and 2550 nM, respectively.
The corresponding values for `Cc1noc(NS(=O)(=O)c2ccn(-c3ccc(C(C)C)cc3)c2)c1Br` [N-(4-Bromo-3-methyl-5-isoxazolyl) 1-(4′-isopropylphenyl)pyrrole-3-sulfonamide] are 211 nM and 838 nM.
As to `Cc1noc(NS(=O)(=O)c2cccn2-c2ccc(C(C)C)cc2)c1Br` [N-(4-Bromo-3-methyl-5-isoxazolyl)-1-(4′-isopropylphenyl)pyrrole-2-sulfonamide], the IC50 was 166 nM at human ETB receptor (setting [3]) and 11400 nM on human ETA receptors (setting [4]).
The corresponding values for `Cc1noc(NS(=O)(=O)c2cccn2-c2ccccc2)c1Br` [N-(4-Bromo-3-methyl-5-isoxazolyl)-1-(phenyl)pyrrole-2-sulfonamide] are 8700 nM and 18100 nM.
For `Cc1noc(NS(=O)(=O)c2cc(Cl)sc2Cl)c1Br` [N-(4-Bromo-3-methyl-5-isoxazolyl)-2,5-dichlorothiophene-3-sulfonamide] the same measures were 2620 nM and around 390 nM.
For `Cc1cc(S(=O)(=O)Nc2onc(C)c2Br)c(C)s1` [N-(4-Bromo-3-methyl-5-isoxazolyl)-2,5-dimethylthiophene-3-sulfonamide] the same measures were 7800 nM and 95.6 nM.
